Experiment: In man pharmacokinetics of oral NO-diclofenac sachets (plasma, LC/MS/MS)
Assay type: in vivo
Conditions: 75, 100 and 150 mg sachets of example 2, oral; 0.25-32 h
Description: In man evaluation of pharmacokinetic and pharmacodynamic parameters of the oral NO-diclofenac formulation described in example 2 (sachets).
Six healthy fastened patients were administered with 75, 100 and 150 mg NO-Diclofenac sachets formulated as described in example 2.
In order to evaluate the pharmacokinetic parameters, blood samples were taken at 0.25, 0.5, 1, 2, 3, 4, 5, 6, 8, 10, 12, 16, 24 and 32 hours after administration of the pharmaceutical formulation. The active ingredient NO-diclofenac and its metabolites diclofenac and the hydroxyderivative 4-OH-diclofenac were dosed in plasma by a LC/MS/MS method, previously validated. NO-diclofenac was not found in the samples at any dosage. The pharmacokinetic parameters of plasma levels obtained for diclofenac (D) and the 4-hydroxydiclofenac (40H-Diclofenac, 40H-D) are reported in Table 2.

- NO-diclofenac (unchanged) in plasma samples: not found
Structure (SMILES): O=C(Cc1ccccc1Nc1c(Cl)cccc1Cl)OCCCCO[N+](=O)[O-] [NO-diclofenac, 2-[(2,6-dichlorophenyl)amino]benzeneacetic acid 4-(nitrooxy)butyl ester]
